Ki and IC50 data for 30 molecules are collected here from ChEMBL document CHEMBL1145929, “Syntheses and binding studies of new [(aryl)(aryloxy)methyl]piperidine derivatives and related compounds as potential antidepressant drugs with high affinity for serotonin (5-HT) and norepinephrine (NE) transporters” (J Med Chem, 2003).

Assay [1] deals with T1, 5-hydroxytryptamine receptor 1A (Rattus norvegicus, UniProt P19327).
T1 sequence (P19327 whole entry): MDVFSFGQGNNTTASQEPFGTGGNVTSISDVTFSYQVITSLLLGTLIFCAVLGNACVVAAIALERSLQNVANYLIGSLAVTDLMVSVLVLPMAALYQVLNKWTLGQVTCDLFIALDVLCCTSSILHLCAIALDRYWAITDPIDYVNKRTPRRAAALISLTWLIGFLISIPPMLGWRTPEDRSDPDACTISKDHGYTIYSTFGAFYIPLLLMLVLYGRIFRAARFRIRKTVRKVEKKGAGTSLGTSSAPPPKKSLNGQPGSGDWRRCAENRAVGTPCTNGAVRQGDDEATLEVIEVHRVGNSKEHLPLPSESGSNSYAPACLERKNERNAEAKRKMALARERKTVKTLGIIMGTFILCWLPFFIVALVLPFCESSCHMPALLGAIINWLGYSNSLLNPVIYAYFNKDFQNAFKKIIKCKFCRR
Kind of assay: Displacement of [3H]8-OH-DPAT from 5-hydroxytryptamine 1A receptor of rat hippocampus mambranes. It counts as tissue-based.

Assay [2] concerns the target T2, Sodium-dependent serotonin transporter (Rattus norvegicus, UniProt P31652). Kind of assay: Binding affinity against serotonin transporter (SERT) by displacement of [3H]paroxetine in male wistar rats. For orientation: Displacement assays read how much labelled ligand stays bound in the presence of the test substance.
Assay [3] deals with T3, 5-hydroxytryptamine receptor 2A (Rattus norvegicus, UniProt P14842). Nature of the assay: Binding affinity against 5-hydroxytryptamine 2A receptor by displacement of [3H]ketanserin from rat prefrontal cerebral cortex mambranes. The assay is classed as tissue-based, Frontal cortex.
T3 sequence (P14842 whole entry): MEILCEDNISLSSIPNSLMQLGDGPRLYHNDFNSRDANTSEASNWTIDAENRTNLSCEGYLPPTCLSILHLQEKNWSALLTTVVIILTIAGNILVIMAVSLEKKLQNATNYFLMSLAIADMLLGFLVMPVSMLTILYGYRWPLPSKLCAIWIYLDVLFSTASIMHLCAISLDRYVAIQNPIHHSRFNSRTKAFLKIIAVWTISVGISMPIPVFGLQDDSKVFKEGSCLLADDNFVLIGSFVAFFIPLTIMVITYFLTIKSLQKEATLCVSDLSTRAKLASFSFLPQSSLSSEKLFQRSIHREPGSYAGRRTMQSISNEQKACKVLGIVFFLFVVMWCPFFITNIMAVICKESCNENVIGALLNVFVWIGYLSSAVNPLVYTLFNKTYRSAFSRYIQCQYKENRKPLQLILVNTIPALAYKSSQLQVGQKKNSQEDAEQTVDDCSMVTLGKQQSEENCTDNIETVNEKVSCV
Assay [4] deals with T1, 5-hydroxytryptamine receptor 1A. Nature of the assay: Binding affinity against 5-hydroxytryptamine 1A receptor (5-HT1A) by displacement of [3H]8-OH-DPAT from rat hippocampus membranes. It counts as cell membranes, Membrane.
For assay [5], the target named is Norepinephrine transporter (Rattus norvegicus, UniProt Q9WTR4). Nature of the assay: Binding affinity against norepinephrine transporter (NET) by displacement of [3H]nisoxetine in male wistar rats.
Chain of Norepinephrine transporter (Q9WTR4 whole entry): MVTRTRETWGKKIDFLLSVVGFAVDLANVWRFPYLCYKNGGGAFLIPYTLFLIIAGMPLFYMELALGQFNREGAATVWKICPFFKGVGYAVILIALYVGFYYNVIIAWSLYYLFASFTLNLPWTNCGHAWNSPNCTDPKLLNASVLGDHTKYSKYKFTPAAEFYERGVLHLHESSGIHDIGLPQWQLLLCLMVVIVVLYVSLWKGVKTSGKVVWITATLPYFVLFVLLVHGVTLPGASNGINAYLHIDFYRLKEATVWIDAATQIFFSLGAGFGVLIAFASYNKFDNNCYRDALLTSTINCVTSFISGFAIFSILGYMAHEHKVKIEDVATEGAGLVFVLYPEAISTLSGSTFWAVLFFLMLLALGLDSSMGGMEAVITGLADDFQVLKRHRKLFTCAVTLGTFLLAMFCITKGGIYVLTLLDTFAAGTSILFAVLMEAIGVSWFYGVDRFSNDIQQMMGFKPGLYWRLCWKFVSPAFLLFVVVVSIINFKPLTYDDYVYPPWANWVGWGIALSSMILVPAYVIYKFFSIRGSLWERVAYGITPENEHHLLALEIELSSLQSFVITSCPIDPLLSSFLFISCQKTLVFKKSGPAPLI
In assay [6] the target is Sodium-dependent dopamine transporter (Rattus norvegicus, UniProt P23977). Kind of assay: Binding affinity against dopamine transporter (DAT) by displacement of [3H]WIN-35428 in male wistar rats.
Chain of Sodium-dependent dopamine transporter (P23977 whole entry): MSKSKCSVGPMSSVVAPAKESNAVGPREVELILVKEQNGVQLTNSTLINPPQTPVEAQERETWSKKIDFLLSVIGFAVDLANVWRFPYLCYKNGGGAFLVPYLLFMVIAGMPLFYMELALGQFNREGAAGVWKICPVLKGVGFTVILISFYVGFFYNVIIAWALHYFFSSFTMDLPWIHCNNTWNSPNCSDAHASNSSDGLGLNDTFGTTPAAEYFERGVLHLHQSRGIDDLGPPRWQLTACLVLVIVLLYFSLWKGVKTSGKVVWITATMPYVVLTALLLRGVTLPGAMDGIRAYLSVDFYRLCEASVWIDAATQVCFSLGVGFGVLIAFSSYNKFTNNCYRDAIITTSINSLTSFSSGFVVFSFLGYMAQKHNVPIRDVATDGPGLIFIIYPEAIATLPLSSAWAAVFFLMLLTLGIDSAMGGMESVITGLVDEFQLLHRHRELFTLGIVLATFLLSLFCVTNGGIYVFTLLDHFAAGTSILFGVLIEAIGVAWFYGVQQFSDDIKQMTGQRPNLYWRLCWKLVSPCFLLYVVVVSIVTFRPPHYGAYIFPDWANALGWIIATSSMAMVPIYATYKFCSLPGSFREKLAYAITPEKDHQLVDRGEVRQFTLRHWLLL
The target in assay [7] is T3, 5-hydroxytryptamine receptor 2A. Nature of the assay: Binding affinity against 5-hydroxytryptamine 2A receptor by displacement of [3H]-ketanserin from rat prefrontal cerebral cortex mambranes. It counts as tissue-based, Frontal cortex.
In assay [8] the target is T2, Sodium-dependent serotonin transporter. Nature of the assay: Binding affinity to the serotonin transporter (SERT) measured by displacement of [3H]paroxetine in male wistar rats.
Assay [9] shares this target. Nature of the assay: Binding affinity against serotonin transporter (SERT) by displacement of [3H]paroxetine in male wistar rat.

Where only a bound is given, the exact number is not on record here.

T2 sequence (P31652 whole entry): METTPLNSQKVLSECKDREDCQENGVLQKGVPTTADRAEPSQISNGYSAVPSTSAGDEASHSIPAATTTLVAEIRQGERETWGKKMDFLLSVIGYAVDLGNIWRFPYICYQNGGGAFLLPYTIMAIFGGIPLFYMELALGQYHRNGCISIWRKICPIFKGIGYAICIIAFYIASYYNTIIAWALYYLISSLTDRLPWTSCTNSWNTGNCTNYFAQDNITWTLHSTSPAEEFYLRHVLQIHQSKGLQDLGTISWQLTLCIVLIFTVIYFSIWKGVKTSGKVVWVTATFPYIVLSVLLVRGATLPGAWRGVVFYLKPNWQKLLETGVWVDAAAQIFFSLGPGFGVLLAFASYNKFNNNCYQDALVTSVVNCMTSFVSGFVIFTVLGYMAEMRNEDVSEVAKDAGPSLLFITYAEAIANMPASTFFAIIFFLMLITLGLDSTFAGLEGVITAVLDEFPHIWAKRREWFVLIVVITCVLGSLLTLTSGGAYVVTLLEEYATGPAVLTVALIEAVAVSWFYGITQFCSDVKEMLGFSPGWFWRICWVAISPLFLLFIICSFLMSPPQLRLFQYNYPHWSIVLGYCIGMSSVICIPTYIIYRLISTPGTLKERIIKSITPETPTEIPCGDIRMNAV

For orientation: Ki means the equilibrium dissociation constant of an inhibitor or competing ligand from its target. Lower therefore signals a stronger hold on the target. The IC50 is the concentration that inhibits the measured activity by half. Lower therefore signals inhibition by little substance. Consider `FC(F)(F)c1ccccc1OC(CCN1CCN(c2nsc3ccccc23)CC1)c1ccccc1` (centres undefined), for which the inhibition constant (Ki) is 446 nM in assay [1] and 24.1 nM in [3]. For the same molecule, the half-maximal inhibitory concentration (IC50) in assay [2] was above 1000 nM.
In the case of `c1ccc(C(Oc2cccc3ccccc23)C2CCNCC2)cc1` (single isomer, unassigned; (+)), the 50% inhibitory concentration (IC50) in [4], in [6] and in assay [7] was above 1000 nM throughout. In addition, the figures for the Ki in assay [5] and in [8] were 417 nM and 20.1 nM, respectively.
Regarding `Fc1ccccc1OC(c1ccccc1)C1CCNCC1` (single isomer, unassigned; (-)), the half-inhibitory concentration (IC50) in assay [4], in assay [6] and in assay [7] was above 1000 nM in each case. Further, the affinity in assay [5] corresponds to a Ki of 22.5 nM.
Regarding `Fc1cccc(OC(c2ccccc2)C2CCNCC2)c1` (stereo in doubt; (+)-15j), the half-inhibitory concentration (IC50) in assay [4] and in assay [7] was above 1000 nM each time. Further, the inhibition constant (Ki) was 98.3 nM in assay [5] and 163 nM in assay [6].
Consider `Fc1ccccc1OC(CCN1CCN(c2nsc3ccccc23)CC1)c1ccccc1` (centres undefined), for which the inhibitory constant (Ki) was determined as 70.2 nM in assay [1] and 5.3 nM in assay [3]. The molecule also came in with an IC50 in [9] above 1000 nM.
As for `Fc1cccc(OC(c2ccccc2)C2CCNCC2)c1` (stereo in doubt; (-)-15j), the half-inhibitory concentration (IC50) in assay [4] and in assay [7] was above 1000 nM in each case. The same molecule came in with a Ki in assay [5] of 13.5 nM.
For `OC1(c2ccc(Cl)cc2)c2ccccc2C2=NCCN21` (centres undefined) [MAZINDOL], the IC50 in assay [4] and in assay [7] was above 1000 nM each time. Moreover, the inhibition constant (Ki) in assay [5] was determined as 0.8 nM; in assay [6], 44.3 nM; in assay [8], 248 nM.
Consider `CCCN(CCC)C1CCc2cccc(O)c2C1` (centres undefined) [8-OH-DPAT], for which the concentration for half-maximal inhibition (IC50) in assay [2], in assay [5], in assay [6] and in [7] was above 1000 nM each time.
As for `COc1ccc(OC(CCN2CCN(c3nsc4ccccc34)CC2)c2ccccc2)cc1` (centres undefined), the values for the Ki in assay [1] and in assay [3] were 69.7 nM and 10.2 nM, respectively. Further, the 50% inhibitory concentration (IC50) in assay [2] is above 1000 nM.
With `Brc1ccc(OC(c2ccccc2)C2CCNCC2)cc1` (single isomer, unassigned; (-)), the half-inhibitory concentration (IC50) in assay [4] is above 1000 nM; in assay [5], above 500 nM; in assay [6], above 1000 nM; in assay [7] it was above 1000 nM. The molecule also yielded a Ki in assay [8] of 5.7 nM.
In the case of `COc1ccc(OC(CCN2CCN(c3noc4ccccc34)CC2)c2ccccc2)cc1` (centres undefined), the Ki in [1] is 182 nM; in assay [3], 18.9 nM. The half-inhibitory concentration (IC50) in assay [2] is above 1000 nM.
For `Nc1ccc(OC(CCC(=O)C2CCN(c3ccc(F)cc3)CC2)c2ccccc2)cc1` (centres undefined), in that order: 108 nM, 16.4 nM and above 1000 nM.
`O=C(CCC(Oc1ccccc1F)c1ccccc1)C1CCN(c2ccc(F)cc2)CC1` (centres undefined): the inhibition constant Ki in assay [1] amounted to 37.8 nM; in assay [3], 8 nM. This molecule returned an IC50 in assay [2] above 1000 nM.
As to `CN1CCC(C(Oc2ccc(F)cc2)c2ccccc2)CC1` (centres undefined), the concentration for half-maximal inhibition (IC50) in assay [4] and in assay [2] was above 1000 nM in each case. In addition, in [3], the inhibition constant Ki amounted to 44.4 nM.
As to `c1ccc(C(Oc2cccc3ccccc23)C2CCNCC2)cc1` (stereo in doubt; (-)-15au), the 50% inhibitory concentration (IC50) in assay [4], in assay [5], in assay [6] and in [7] was above 1000 nM each time. In [8], the Ki came to 28.1 nM.
In the case of `c1ccc(-c2ccccc2OC(c2ccccc2)C2CCNCC2)cc1` (centres undefined), the concentration for half-maximal inhibition (IC50) in [4] and in assay [2] was above 1000 nM each time. In [3], this molecule displayed a Ki of 149 nM.
For the molecule `COc1ccc(OC(CCC(=O)C2CCN(c3ccc(F)cc3)CC2)c2ccccc2)cc1` (centres undefined), the inhibition constant Ki was found to be 93.6 nM in assay [1] and 53.8 nM in [3]. The molecule also registered an IC50 in assay [2] above 1000 nM.
On to `FC(F)(F)c1ccc(OC(c2ccccc2)C2CCNCC2)cc1` (single isomer, unassigned; (-)), for which the 50% inhibitory concentration (IC50) in assay [5] and in [6] was above 1000 nM throughout.
In the case of `FC(F)(F)c1ccc(OC(CCN2CCN(c3nsc4ccccc34)CC2)c2ccccc2)cc1` (centres undefined), the Ki in [1] came to 33.7 nM; in assay [3], 40.2 nM. The molecule also yielded an IC50 in assay [2] above 1000 nM.
On to `O=[N+]([O-])c1ccc(OC(c2ccccc2)C2CCNCC2)cc1` (single isomer, unassigned; (-)), for which the half-maximal inhibitory concentration (IC50) in assay [4] was above 1000 nM; in assay [5] it was above 500 nM; in assay [6] it was above 1000 nM; in [7] it was above 1000 nM. Besides, the affinity in [8], expressed as Ki, was 0.6 nM.
Regarding `FC(F)(F)c1ccc(OC(c2ccccc2)C2CCNCC2)cc1` (stereo in doubt; (+)-15q), the half-maximal inhibitory concentration (IC50) in assay [5] and in assay [6] was above 1000 nM each time.
For `O=[N+]([O-])c1ccc(OC(c2ccccc2)C2CCNCC2)cc1` (single isomer, unassigned; (+)), the IC50 in assay [4], in assay [5], in assay [6] and in [7] was above 1000 nM each time.
Turning to `Fc1ccccc1OC(c1ccccc1)C1CCNCC1` (single isomer, unassigned; (+)), the half-inhibitory concentration (IC50) in assay [4] and in [7] was above 1000 nM each time. The inhibition constant (Ki) in [5] is 41.4 nM; in assay [6] it was 520 nM; in assay [8], 28.5 nM.
In the case of `Fc1cccc(C(Oc2ccccc2F)C2CCNCC2)c1` (single isomer, unassigned; (-)), the IC50 in [4] is above 1000 nM; in assay [6] it was above 500 nM; in assay [7], above 1000 nM. Moreover, the Ki in assay [5] was found to be 19.1 nM; in assay [8] it was 4.3 nM.
As for `Fc1ccccc1OC(CCN1CCN(c2noc3ccccc23)CC1)c1ccccc1` (centres undefined), the figures for the Ki in assay [1] and in [3] were 118 nM and 17.2 nM, respectively. In addition, the IC50 in assay [2] is above 1000 nM.
In the case of `Fc1cccc(C(Oc2ccccc2F)C2CCNCC2)c1` (single isomer, unassigned; (+)), the IC50 in [4] and in assay [7] was above 1000 nM throughout. This molecule came in with a Ki in [5] of 48.1 nM.
Regarding `Brc1ccc(OC(c2ccccc2)C2CCNCC2)cc1` (single isomer, unassigned; (+)), the concentration for half-maximal inhibition (IC50) in assay [4], in assay [5], in assay [6] and in assay [7] was above 1000 nM throughout. In addition, the Ki in [8] amounted to 23.2 nM.
As for `O=C(CCC(Oc1ccc([N+](=O)[O-])cc1)c1ccc(F)cc1)C1CCN(c2ccc(F)cc2)CC1` (centres undefined), the IC50 in assay [4] and in assay [2] was above 1000 nM each time. This molecule also yielded a Ki in [3] of 55.1 nM.
On to `CN1CCN2c3ncccc3Cc3ccccc3C2C1` (centres undefined) [MIRTAZAPINE], for which the half-inhibitory concentration (IC50) in assay [4], in assay [2], in assay [5] and in assay [6] was above 1000 nM each time.
Turning to `O=[N+]([O-])c1ccc(OC(CCN2CCN(c3n[o+][c-]4ccccc34)CC2)c2ccccc2)cc1` (centres undefined), the Ki came out at 254 nM in assay [1] and 53.3 nM in assay [3]. Besides, the IC50 in assay [2] was above 1000 nM.
